Measurements taken from US20090065745A1, “ANTI-DEGRADATION AGENT” (priority 2005, published 2009).

test: Solubility in hexane (oil solubility); format: physicochemical; details: at 30° C.
Source text: However, the solubility in triglyceride of the compound varies depending upon constitutional fatty acids of the triglyceride. Therefore, in the present invention, the oil insolubility and oil solubility of the compound is defined by a solubility thereof in hexane.

| Solubility in hexane [mg/mL] | Compound | Oil solubility class (solubility in hexane) |
| --- | --- | --- |
| >500 | tocopherol [Vitamin E (tocopherol)] | Oil-soluble (oil-soluble antioxidant having a solubility in 1 L of hexane of not less than 50 g as measured at 30° C.) |

test: Measurement of dynamic hydration number (relaxation time T1); format: physicochemical; details: at 25° C., in water
Source text: First, the concept of the “dynamic hydration number” used in the present invention is explained. It is considered that the initial reaction of deterioration is caused at an “interface”, i.e., any of interfaces between gas and liquid, between liquid and solid and between liquid and liquid. In the case of almost all of foods, it is considered that the initial reaction of deterioration thereof is caused at an interface between oil and water. Here, if consideration is mainly made on the case where a configuration of the food is an aqueous system, water is generally classified into two types, i.e., liberated water and combined water. It is considered that among these waters, the liberated water frequently constitutes a factor relating to the initial reaction of deterioration.
The control of the liberated water can be realized by constraining a free motion of water molecules. The “dynamic hydration number” of the compound is an index showing a degree of constraint of free motion of water when the compound is dissolved in water. […] The dynamic hydration number of the compound may be readily measured, for example, by the following method.
25.0 mg of p-hydroxybenzoic acid was dissolved in pure water, and pure water was further added the resultant solution to obtain 50 mL of a solution (blank). The blank was added to samples used in amounts of 1.008 g and 1.512 g, respectively, to prepare sample solutions 1 and 2 having total weights of 4.013 g and 3.001 g, respectively. Using a spectrophotometer “Inova 500” manufactured by Varian Corp., the relaxation time (T1) of the respective sample solutions was measured at 25° C. to determine a dynamic hydration number thereof.

| Dynamic hydration number (nDHN) | Compound |
| --- | --- |
| 15.5 | O=C[C@H](O)[C@@H](O)[C@H](O)CO [Xylose] |
| 204 | Maltotriose |
| 21.0 | CC(C)[C@H](N)C(=O)O [Valine] |
| 15.0 | OC[C@H]1O[C@@](CO)(O[C@H]2O[C@H](CO)[C@@H](O)[C@H](O)[C@H]2O)[C@@H](O)[C@@H]1O [Sucrose] |

The remaining lines, values behind:

| Compound | Dynamic hydration number (nDHN) |
| --- | --- |
| Maltotriol | 211 |
| NCCCC[C@H](N)C(=O)O [Lysine] | 3.0 |
| O=C(CO)[C@@H](O)[C@H](O)[C@H](O)CO [Fructose] | 16.5 |
